Source: a melting point compilation (Tetko et al.; mined from patent text by program, amines drawn as free bases though some values may be those of a salt)

Row | Compound | melting point [°C]
1 | CC[C@H](C)[C@H](NC(=O)[C@H](Cc1ccc(O)cc1)NC(=O)OC(C)(C)C)C(=O)NCCCBr | 96 to 100
2 | CC(C)c1c(Cl)[nH]c(=O)[nH]c1=O | 250 to 251
3 | CC(C)(C)OC(=O)NCc1nc2c(C(F)(F)F)cccc2c(O)c1C(=O)Nc1nccs1 | 238
4 | CCCCOc1cc(CCC(=O)O)ccc1CCCc1ccc(OCCCC)c(OC)c1 | 64
5 | CCOC(=O)C(=CNC1CC1)C(=O)c1c(F)c(F)c(F)c(F)c1N(C)C | 122 to 124
6 | CCOC(=O)C(C#N)=CNc1nccc2c1CCCC2 | 116 to 120
7 | O=C(c1c(F)cccc1F)N1COCN(c2ccc(Cl)cc2)C1=O | 125 to 126
8 | CC(C)NC(=O)Cc1cccc(N)c1 | 93 to 95
9 | O=C(CBr)CCc1ccc(Cl)cc1 | 51
10 | O=CN1CC2Oc3ccccc3OC2C1 (centres undefined) | 207 to 208
11 | O=C1OC(O)c2c(Cl)cccc21 (centres undefined) | 120 to 122
12 | O=C(Nc1ccc(C(=O)Nc2ccc(Cl)cc2)c(O)c1)c1ccc(-c2nc3cc(Cl)c(Cl)cc3[nH]2)cc1 | > 220
13 | c1cc(N2CCCN(c3ccc(-c4ccc5c(c4)OCO5)cn3)CC2)ncc1-c1ccc2c(c1)OCO2 | 235 to 237
14 | CCC(=O)NC1C=CC(CO)C1 (centres undefined) | 67 to 68
15 | CC(C)(C)C(=O)CCSC(=S)Nc1ccc(Cl)cn1 | 111
16 | CC(O)(C(=O)Nc1ccc(Cl)cc1)c1ccc(F)cc1Cl (centres undefined) | 167
17 | NC(=O)Cc1cccc(C(=O)c2ccc(Cl)cc2)c1N | 212 to 215
18 | CCOC(=O)C(=[N+]=[N-])C(=O)c1cc(I)cnc1Cl | 84 to 85
19 | Cc1ccc(NC(=O)N2CC(C)(C)NC(C)(C)CC2=O)cc1 | 126
20 | CC(=O)NCCNc1ccc(C2=NNC(=O)CC2C)cc1[N+](=O)[O-] (centres undefined) | 222
21 | CC(C)(C)c1ccc(C(=O)CCCN2CCC(C3(O)c4ccccc4CCc4ccccc43)CC2)cc1 | 132 to 134
22 | Cn1c2c(ccc1=O)C(NCCc1ccc(C(F)(F)F)cc1)CCC2 (centres undefined) | 104 to 106
23 | COC(=O)C(c1ccc(Cl)cc1)C(OC)OC (centres undefined) | 61 to 62
24 | COc1cc2c(c(-c3cc(F)ccc3F)c1)OC(CN)C2 (centres undefined) | 118 to 120
25 | COc1ccc(Nc2nc(NC3CCCCCC3)cc(N3CCC(O)CC3)n2)cc1Cl | 84 to 86
26 | CC(=O)NC[C@H]1CC[C@H](C(=O)c2cc3c4c(c2)CCN4C(=O)CC3)CC1 | 178 to 180
27 | NS(=O)(=O)c1ccc(SCCO)s1 | 46.5 to 47.5

Row | Compound | melting point [°C]
28 | Cn1ccnc1Sc1ccc(Nc2c(C#N)cnc3cc(/C=C/CCCN4CCCC4)ccc23)cc1Cl | 217 to 222
29 | CCCOC(=O)c1cnc(S)n1C(c1ccccc1)c1ccccc1 | 133
30 | COc1ccc(C(=O)NC(=O)NC2CN3CCC2CC3)cc1 (centres undefined) | 166 to 168
31 | C#CCOc1cc(-n2c(Cl)c(C#N)n(CCC)c2=O)c(F)cc1Cl | 122
32 | O=C1CN=C2C(=O)CC=CC2=N1 | 208 to 211
33 | CCOC(=O)CN1CCN(C(=O)OC(C)(C)C)CC1 | 67 to 69
34 | CC[C@H]1CN(c2c(F)cc3c(=O)c(C(=O)O)cn([C@@H]4C[C@@H]4F)c3c2OC)C[C@H]1N | 217 to 219
35 | CC(=O)c1cnc(C(=O)C(C)(C)C)cn1 | 41 to 42.5
36 | CCOC(=O)c1nnc2ccc(NC(=O)OCC(Cl)(Cl)Cl)cc2c1O | 251 to 253
37 | CCCCCCCCOc1ccc(CP(=O)(OC)OC)c2c(CP(=O)(OC)OC)cccc12 | 51 to 52
38 | CS(=O)(=O)c1ccc(-c2c(OCC(=O)c3ccc(F)cc3)nn(CC(=O)c3ccc(F)cc3)c2-c2ccc(F)cc2)cc1 | 191 to 193
39 | COc1ccc(/C=C/S(=O)(=O)CS(=O)(=O)/C=C/c2ccc(OC)c(O)c2)cc1N | 148 to 150
40 | O=C1N=CC(OCC2CC2)(C(F)(F)F)c2cc(Cl)ccc2N1 (centres undefined) | 185 to 186
41 | O=C(O)c1nc2c(=O)[nH]c3cc(C(F)(F)F)ccc3n2c1CNc1ccc2c(c1)OCO2 | > 250
42 | CCCCCCCCCCCCCCCCCNC(=O)OCCSCCOC(=O)NCc1ccccn1 | 73 to 74
43 | CCCc1c2occc(=O)c2cc2c(=O)c(-c3ccc(C(=O)O)cc3)c(C(=O)O)oc12 | 250
44 | CCCCCC(C)N(Cc1ccc(CC(C)(C)C)s1)C(Nc1ccc(OC)cc1OC)=C1C(=O)OC(C)(C)OC1=O (centres undefined) | 152 to 153
45 | O=C(ON1C(=O)CCC1=O)c1ccc(-c2ccc(S(=O)(=O)N3CCCC(CO)C3)cc2)[nH]c1=O (centres undefined) | 201 to 204
46 | CC(C)C(=O)NC(N)=S | 114 to 116
47 | CCCCCCCCCCCCCCCCCCNC(=O)OCC(CN)OC(=O)NC (centres undefined) | 49 to 50.5
48 | COc1ccc(C(Cl)=C(C=O)c2ccc(OC)c(OC)c2)cc1OC | 183 to 184
49 | O=C(O)c1cc2ccsc2cn1 | 246
50 | CC(=O)NC[C@H]1CN(c2ccc(N3CCC(=C(C)C#N)CC3)cc2)C(=O)O1 | 94 to 96
51 | N#Cc1ccc(CCc2ccc(CN3C(=O)c4ccccc4C3=O)cc2)cc1 | 194 to 197
52 | COc1ccc(C(=C/C=C/C(=O)NCCCCc2cccnc2)c2ccc(OC)c(OC)c2)cc1OC | 145 to 146
53 | CC(=O)Nc1cccc(-c2cc3nc(-c4cccnc4N)n(-c4cccc(-c5cc(C)nc6ccc(NC(C)=O)cc56)c4)c3nc2-c2cccnc2)c1 | 176 to 178
54 | C=CCC1NC(=O)C1C(C)(C)O (centres undefined) | 144

The next lines start with the values.

Row | melting point [°C] | Compound
55 | 190 to 192 | O=C(O)c1ccccc1C(=O)c1ccc(N2CCCC2)cc1O
56 | 157 | CC(C)c1ccc(NC(=O)C2CCCc3c(OCc4ccccc4)cccc32)cn1 (centres undefined)
57 | 134 to 142 | O=C(Nc1ccc(C(=O)N2Cc3ccccc3Cc3ccccc32)cn1)c1ccccc1-c1ccccc1
58 | 64 to 65 | O=Cc1csc(-c2ccccc2)c1
59 | 189 to 190 | O=c1ccc(-c2c(-c3ccccc3)nn3ccccc23)nn1C1CCC2(CC1)OCCO2
60 | 120 to 122 | Cn1ncnc1COc1nc2c(cc1C1CCC1)nnn2-c1ccccc1F
61 | 82 | CCN(CC)C(=O)COc1cc(-c2ccccc2)cc2ccccc12
62 | 128 | CC1(C)COc2cc(Cl)c(Cl)cc2C(O)(c2ccccn2)C1 (centres undefined)
63 | 218 | O=c1ccc(C(F)(F)F)cn1-c1ccc([N+](=O)[O-])cc1Cl
64 | 117 | Cc1cc(C)nc(-c2cccc(-c3ccccc3)n2)n1
65 | 179 to 180 | COc1cc(COc2nn(-c3ccccc3)cc2C=O)ccc1OCc1cn(-c2ccccn2)nc1C
66 | 262 to 264 | Cc1nn(C)c2nc(-c3ccccc3)cc(O)c12
67 | 178 to 179 | CCOc1cccc(-c2ccc(C3CCN(S(=O)(=O)C(C)(C)C(=O)O)CC3)cc2C)n1
68 | 172 to 173 | COC1(C(=O)O)C=CC(OCc2ccccc2)=CC1 (centres undefined)
69 | 160 to 162 | CCc1c(Br)c2ccccn2c1C(=O)c1ccc(O)cc1
70 | > 300 | C[C@H](NC(=O)c1c[nH]c2ncc(-c3ccc(C(F)(F)F)cc3)nc12)C(C)(C)C
71 | 104 | COc1ccc(N=C(C#Cc2ccccc2)N2CCN(Cc3ccccc3)CC2)cc1
72 | 174 to 176 | CC(=O)c1ccc(Nc2c3ccccc3nc3occ(Cl)c23)cc1
73 | 209 to 211 | CC(C)(C)c1ccnc(C(=O)c2[nH]c3ccc(Cl)cc3c2CC(=O)O)c1
74 | 238 to 239 | COc1cn(-c2ccc(N3CCN(C(C)(C)C)C3=O)cc2F)nc(-c2ccnn2-c2ccccc2)c1=O
75 | 269 to 274 | Cc1c2ccc(-c3nn(C(C)c4oc5ccccc5c(=O)c4-c4cccc(F)c4)c4ncnc(N)c34)cc2nn1C (centres undefined)
76 | 141 | COc1cc(-c2nc3ccc(OCCCN(C)C)cc3n2Cc2ccccc2Br)cc(OC)c1OC
77 | > 250 | COc1cc2ncc(C#N)c(Nc3ccc(Cl)c4ccccc34)c2cc1OC

Row | melting point [°C] | Compound
78 | 129 to 130 | CC(C)c1nc(CCOCc2ccccc2)n(CCO)c1Sc1cc(Cl)cc(Cl)c1
79 | 145 | CCc1ccc(C)c(S(=O)(=O)NC(=O)n2nc(C)n(C)c2=O)c1
80 | 162 to 164 | CN1C(=O)c2ccccc2OC1(C)COc1ccc(N)cc1 (centres undefined)
81 | 129 to 130 | CC(C)(C)OC(=O)N1CCCN(c2cncc(-c3cccc([N+](=O)[O-])c3)c2)CC1
82 | 293 to 295 | CC1CC(=O)NN=C1c1ccc2[nH]c(-c3ccnnc3)cc2c1 (centres undefined)
83 | 120 to 122 | CCOc1ccccc1N1CCN(C(=O)Nc2nc3ccccc3nc2OCC)CC1
84 | 286 | COC(=O)c1cc(O)c2nc(C)n(C)c2c1
85 | 65 to 67 | N#Cc1ccc(-c2ccc(Cl)cc2Cl)c(F)c1
86 | 165 to 166 | COc1ccc(C(=O)N[C@H]2CCN(C)C[C@H]2c2ccccc2)cc1 (relative stereo)
87 | 87 to 88 | Cc1nc(-c2cccc([N+](=O)[O-])c2)cs1
88 | 211 to 218 | CC#Cc1ccc(NC(=O)c2cccnc2NCc2ccc(=O)[nH]c2)cc1C(F)(F)F
89 | 102 to 108 | COC(=O)c1nn(-c2cccnc2)cc1N
90 | 135 to 137 | CN1CN(C(=O)c2c(F)cccc2F)C(=O)N(c2ccc(SC(F)F)cc2F)C1
91 | 162 to 163 | COc1ccc([C@@H]2O[C@H]2C(=O)Nc2ccccc2)cc1
92 | 175 | CS(=O)(=O)c1ccc(C(=O)c2cc(-c3ccccc3)c(N3CCOCC3)s2)cc1
93 | 177 to 178 | CC(=O)Oc1ccc(C=CC(=O)NC2CCc3ccccc32)cc1[N+](=O)[O-] (centres undefined)
94 | 275 to 277 | COc1cc(OC)c2c(=O)[nH]c(-c3ccc(OCC(=O)O)c(OC)c3)nc2c1
95 | 99 to 104 | Cc1cccc(S(=O)(=O)n2cccn2)c1C#N
96 | 62 to 65 | Clc1ccc(N=Cc2ccccc2)cc1Cl
97 | 67 | COc1ccc(C2CCc3cc(OC)ccc3C2CCCn2ccnc2)cc1 (centres undefined)
98 | 128 to 130 | CCc1ccccc1NC(=O)C(C#N)=CN(C)C
99 | 157 to 158 | CCOC(=O)c1cc2cccc(NS(C)(=O)=O)c2[nH]1
